Laboratory results from US20060069132A1, “Azolecarboxamide herbicides” (priority 2004, published 2006).

Key:
giant foxtail [1] = test: Test B pre-/postemergence herbicide test; assay type: in vivo, Setaria faberi
Procedure, shortened: (§1)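 Pre: seeds sown, then sprayed. Post: 1–4-leaf plants (2–18 cm) sprayed at the same time. Paddy: flooded, treated at 2-leaf stage. Formulation: non-phytotoxic solvent with surfactant. Greenhouse 13–15 days; visual 0–100 score relative to controls.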

blackgrass = test: Test B postemergence herbicide test; assay type: in vivo, Alopecurus myosuroides; conditions: scale 0 (no effect) to 100 (complete control)
Procedure, shortened: (§2)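 Visual control ratings, 0–100 versus untreated controls, taken after 13 to 15 days in the greenhouse. Blackgrass received a postemergence spray at the 1- to 4-leaf stage (2–18 cm); ducksalad, umbrella sedge and barnyardgrass were flooded-paddy treated at 2 leaves.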

wild oat = test: Test B postemergence herbicide test; assay type: in vivo, Avena fatua; conditions: scale 0 (no effect) to 100 (complete control)
Procedure, shortened: (§3)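 Formulated test chemicals went onto postemergence plants measuring 2 to 18 cm, at one to four leaves. For the paddy assay, species had reached two leaves. Scoring took place 13–15 days later by eye, relative to untreated plants, using 0 for no effect up to 100 for full control.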

pigweed = test: Test B pre-/postemergence herbicide test; assay type: in vivo, Amaranthus retroflexus
Procedure, shortened: as §1

giant foxtail [2] = test: Test A pre-/postemergence herbicide test; assay type: in vivo, Setaria faberi; conditions: for Plant response rating, Foxtail, Giant: Postemergence; for Foxtail, Giant plant response rating: Preemergence
Procedure, shortened: (§4)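 Plants are held in greenhouse about ten days after treatment, then compared with untreated controls and scored 0 (no effect) to 100 (complete control). Preemergence dosing is a directed soil spray on sown sandy loam; postemergence dosing is spray to runoff at 2–10 cm height.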

velvetleaf [3] = test: Test B pre-/postemergence herbicide test; assay type: in vivo, Abutilon theophrasti
Procedure, shortened: as §1

Surinam grass = test: Test B pre-/postemergence herbicide test; assay type: in vivo, Urochloa decumbens
Procedure, shortened: as §1

morningglory [4] = test: Test A pre-/postemergence herbicide test; assay type: in vivo, Ipomoea spp.; conditions: for Plant response rating, Morningglory: Postemergence; for Morningglory plant response rating: Preemergence
Procedure, shortened: as §4

lambsquarters = test: Test B pre-/postemergence herbicide test; assay type: in vivo, Chenopodium album
Procedure, shortened: as §1

corn = test: Test B pre-/postemergence herbicide test; assay type: in vivo, Zea mays
Procedure, shortened: as §1

velvetleaf [5] = test: Test A pre-/postemergence herbicide test; assay type: in vivo, Abutilon theophrasti; conditions: for Velvetleaf plant response rating: Preemergence, visual rating, 0 to 100 scale (0 no effect, 100 complete control)
Procedure, shortened: as §4

large crabgrass [6] = test: Test A pre-/postemergence herbicide test; assay type: in vivo, Digitaria sanguinalis; conditions: for Plant response rating, Crabgrass, Large: Postemergence; for Crabgrass, Large plant response rating: Preemergence
Procedure, shortened: as §4

[7] = tested on: small flower umbrella sedge; test: Test B flooded paddy test; assay type: in vivo, Cyperus difformis; conditions: 1000 g ai/ha, visual rating, scale 0 to 100 (0 no effect, 100 complete control), 13 to 15 days
Procedure, shortened: as §2

redroot pigweed = test: Test A pre-/postemergence herbicide test; assay type: in vivo, Amaranthus retroflexus; conditions: for Plant response rating, Pigweed: Postemergence; for Pigweed plant response rating: Preemergence
Procedure, shortened: as §4

wheat = test: Test B postemergence herbicide test; assay type: in vivo, Triticum aestivum; design: key to Wheat plant response rating: 0 = no effect, 100 = complete control; conditions: scale 0 (no effect) to 100 (complete control)
Procedure, shortened: as §3

barnyardgrass [8] = test: Test B pre-/postemergence herbicide test; assay type: in vivo, Echinochloa crus-galli
Procedure, shortened: (§5)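 Response was scored visually 13 to 15 days after treatment against untreated greenhouse controls, 0 meaning no effect and 100 complete control. Formulations (solvent mixture plus surfactant) went onto soil after planting, onto foliage of 1- to 4-leaf plants, and onto 2-leaf plants in a flooded paddy set including rice and barnyardgrass.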

rice [9] = test: Test B pre-/postemergence herbicide test; assay type: in vivo, Oryza sativa; conditions: preemergence, 125 g ai/ha; 0 to 100 scale, 0 is no effect, 100 is complete control
Procedure, shortened: as §1

morningglory [10] = test: Test B pre-/postemergence herbicide test; assay type: in vivo, Ipomoea coccinea
Procedure, shortened: as §5

ducksalad = test: Test B flooded paddy test; assay type: in vivo, Heteranthera limosa; conditions: 1000 g ai/ha, visual rating, scale 0 to 100 (0 no effect, 100 complete control), 13 to 15 days
Procedure, shortened: as §2

cocklebur = test: Test B pre-/postemergence herbicide test; assay type: in vivo, Xanthium strumarium
Procedure, shortened: as §5

large crabgrass [11] = test: Test B pre-/postemergence herbicide test; assay type: in vivo, Digitaria sanguinalis
Procedure, shortened: as §1

barnyardgrass [12] = test: Test B flooded paddy test; assay type: in vivo, Echinochloa crus-galli; conditions: 1000 g ai/ha, visual rating, scale 0 to 100 (0 no effect, 100 complete control), 13 to 15 days
Procedure, shortened: as §2

barnyardgrass [13] = test: Test A pre-/postemergence herbicide test; assay type: in vivo, Echinochloa crus-galli; conditions: for Plant response rating, Barnyardgrass: Postemergence; for Barnyardgrass plant response rating: Preemergence
Procedure, shortened: as §4

rice [14] = test: Test B flooded paddy test; assay type: in vivo, Oryza sativa; conditions: 1000 g ai/ha, visual rating, scale 0 to 100 (0 no effect, 100 complete control), 13 to 15 days
Procedure, shortened: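 Plants grow to 1- to 4-leaf stage (2–18 cm) for postemergence spraying, or to 2-leaf stage for the paddy test. Formulated compound is applied. Greenhouse holding lasts 13–15 days. Response is scored visually relative to controls, 0 no effect to 100 complete control; a dash means no result.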

[15] = Postemergence, 500 g ai/ha, visual rating after 13 to 15 days, scale 0 (no effect) to 100 (complete control)
[16] = Preemergence, 500 g ai/ha, scale 0 to 100
[17] = postemergence, 125 g ai/ha, visual rating, scale 0 (no effect) to 100 (complete control)
[18] = preemergence, 125 g ai/ha, 0 to 100 scale, 0 is no effect, 100 is complete control
[19] = Postemergence, 500 g ai/ha, visual rating after 13 to 15 days
[20] = postemergence, 125 g ai/ha, visual rating
[21] = 500 g ai/ha, 0 to 100 scale, 0 no effect, 100 complete control
[22] = 2000 g ai/ha, 0 to 100 scale, 0 no effect, 100 complete control
[23] = 500 g ai/ha, visual rating, 0 to 100 scale (0 no effect, 100 complete control)

## CCn1nc(C(C)(C)C)cc1C(=O)Nc1cc(C(=O)OC(C)(C)C)ccc1F [Compound 71]
Giant foxtail [1]; [15]
  Plant response rating, Foxtail, Giant: 10
Giant foxtail [1]; [16]
  Foxtail, Giant plant response rating: 0
Giant foxtail [1]; [17]
  Foxtail, Giant plant response rating: 0
Giant foxtail [1]; [18]
  Plant response rating, Foxtail, Giant: 0
blackgrass; [19]
  Plant response rating, Blackgrass: 0
blackgrass; [20]
  Blackgrass plant response rating: 0
Wild oat; [19]
  Plant response rating, Oat, Wild: 0
Wild oat; [20]
  Oat, Wild plant response rating: 0
pigweed; [15]
  Plant response rating, Pigweed: 20
pigweed; [17]
  Pigweed plant response rating: 0
pigweed; [18]
  Plant response rating, Pigweed: 0
Giant foxtail [2]; [21]
  Plant response rating, Foxtail, Giant: 0
Giant foxtail [2]; [22]
  Plant response rating, Foxtail, Giant: 0
  Foxtail, Giant plant response rating: 0
Giant foxtail [2]; [23]
  Foxtail, Giant plant response rating: 0
Velvetleaf [3]; [15]
  Plant response rating, Velvetleaf: 0
Velvetleaf [3]; [17]
  Velvetleaf plant response rating: 0
Velvetleaf [3]; [18]
  Plant response rating, Velvetleaf: 0
Surinam grass; [15]
  Plant response rating, Surinam Grass: 10
Surinam grass; [17]
  Surinam Grass plant response rating: 0
Surinam grass; [18]
  Plant response rating, Surinam Grass: 0
Morningglory [4]; [21]
  Plant response rating, Morningglory: 0
Morningglory [4]; [22]
  Plant response rating, Morningglory: 0
  Morningglory plant response rating: 0
Morningglory [4]; [23]
  Morningglory plant response rating: 0
lambsquarters; [15]
  Plant response rating, Lambsquarters: 20
lambsquarters; [17]
  Lambsquarters plant response rating: 0
lambsquarters; [18]
  Plant response rating, Lambsquarters: 0
corn; [15]
  Plant response rating, Corn: 10
corn; [16]
  Corn plant response rating: 0
corn; [17]
  Corn plant response rating: 0
corn; [18]
  Plant response rating, Corn: 0
Velvetleaf [5]; Postemergence, 2000 g ai/ha, 0 to 100 scale, 0 no effect, 100 complete control
  Plant response rating, Velvetleaf: 0
Velvetleaf [5]; 500 g ai/ha
  Velvetleaf plant response rating: 0
Velvetleaf [5]; 2000 g ai/ha
  Velvetleaf plant response rating: 0
Large crabgrass [6]; [21]
  Plant response rating, Crabgrass, Large: 0
Large crabgrass [6]; [22]
  Plant response rating, Crabgrass, Large: 0
  Crabgrass, Large plant response rating: 0
Large crabgrass [6]; [23]
  Crabgrass, Large plant response rating: 0
[7]
  Sedge, Umbrella plant response rating: 0
Redroot pigweed; [21]
  Plant response rating, Pigweed: 0
Redroot pigweed; [22]
  Plant response rating, Pigweed: 0
  Pigweed plant response rating: 0
Redroot pigweed; [23]
  Pigweed plant response rating: 0
wheat; [19]
  Plant response rating, Wheat: 0
wheat; [20]
  Wheat plant response rating: 0
Barnyardgrass [8]; [15]
  Plant response rating, Barnyardgrass: 10
Barnyardgrass [8]; [16]
  Barnyardgrass plant response rating: 0
Barnyardgrass [8]; [17]
  Barnyardgrass plant response rating: 0
Barnyardgrass [8]; [18]
  Plant response rating, Barnyardgrass: 0
Rice [9]
  Plant response rating, Rice: 0
Morningglory [10]; [15]
  Plant response rating, Morningglory: 0
Morningglory [10]; [17]
  Morningglory plant response rating: 0
Morningglory [10]; [18]
  Plant response rating, Morningglory: 0
ducksalad
  Ducksalad plant response rating: 0
cocklebur; [15]
  Plant response rating, Cocklebur: 0
cocklebur; [16]
  Cocklebur plant response rating: 0
cocklebur; [17]
  Cocklebur plant response rating: 0
cocklebur; [18]
  Plant response rating, Cocklebur: 0
Large crabgrass [11]; [15]
  Plant response rating, Crabgrass, Large: 10
Large crabgrass [11]; [16]
  Crabgrass, Large plant response rating: 0
Large crabgrass [11]; [17]
  Crabgrass, Large plant response rating: 0
Large crabgrass [11]; [18]
  Plant response rating, Crabgrass, Large: 0
Barnyardgrass [12]
  Barnyardgrass plant response rating: 0
Barnyardgrass [13]; [21]
  Plant response rating, Barnyardgrass: 0
Barnyardgrass [13]; [22]
  Plant response rating, Barnyardgrass: 0
  Barnyardgrass plant response rating: 0
Barnyardgrass [13]; [23]
  Barnyardgrass plant response rating: 0
Rice [14]
  Rice plant response rating: 0
